From US12466812B2, “Pyridinyltriazine derivative having protein kinase inhibitory activity, and pharmaceutical composition for preventing, ameliorating, or treating cancer comprising same” (KOREA INSTITUTE OF SCIENCE AND TECHNOLOGY, priority 2019, dated 2025)

Assays:
CYP2C19 = CYP2C19 (Homo sapiens, UniProt P33261); assay: Inhibitory activity against CYP metabolic enzyme; type: in vitro ADME
Experimental: (§1) In order to determine whether or not there is a possibility that the compounds synthesized in Examples 1, 22, and 24 of the present invention can cause side effects of drug interaction, the rate (%) of inhibition against 5 major metabolic enzymes (CYP1A2, CYP2C9, CYP2C19, CYP2D6, and CYP3A4) among CYPs (cytochrome P450), which are enzymes involved in oxidative metabolism of drugs, was measured. […] That is, it can be seen that the compound of the present invention has a low possibility of causing side effects of drug interaction.

CYP2C9 = CYP2C9 (Homo sapiens, UniProt P11712); assay: Inhibitory activity against CYP metabolic enzyme; type: in vitro ADME
Experimental: as §1

CYP3A4 = CYP3A4 (Homo sapiens, UniProt P08684); assay: Inhibitory activity against CYP metabolic enzyme; type: in vitro ADME
Experimental: as §1

CYP2D6 = CYP2D6 (Homo sapiens, UniProt P10635); assay: Inhibitory activity against CYP metabolic enzyme; type: in vitro ADME
Experimental: as §1

CYP1A2 = target: T1, CYP1A2 (Homo sapiens, UniProt P05177); assay: Inhibitory activity against CYP metabolic enzyme; type: in vitro ADME
T1 sequence (P05177 1-516): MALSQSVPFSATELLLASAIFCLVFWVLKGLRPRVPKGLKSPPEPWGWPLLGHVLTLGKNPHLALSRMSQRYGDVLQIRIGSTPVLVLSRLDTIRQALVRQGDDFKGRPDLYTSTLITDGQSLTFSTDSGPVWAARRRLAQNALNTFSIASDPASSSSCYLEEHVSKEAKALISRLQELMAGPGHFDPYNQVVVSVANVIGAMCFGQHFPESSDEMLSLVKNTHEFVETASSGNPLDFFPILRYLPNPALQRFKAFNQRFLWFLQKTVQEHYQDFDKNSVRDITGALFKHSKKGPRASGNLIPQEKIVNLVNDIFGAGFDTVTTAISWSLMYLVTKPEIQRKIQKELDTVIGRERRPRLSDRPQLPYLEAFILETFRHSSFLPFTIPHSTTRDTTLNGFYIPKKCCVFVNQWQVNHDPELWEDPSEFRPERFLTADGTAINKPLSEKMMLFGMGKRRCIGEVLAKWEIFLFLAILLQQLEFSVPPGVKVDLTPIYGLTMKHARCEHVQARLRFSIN
Experimental: as §1

IRAK1 = IRAK1 (Homo sapiens, UniProt P51617); assay: Kinase panel biochemical assay; conditions: single concentration of 1 μM; panel of 369 kinases; read-out: kinase activity inhibited (%), IRAK1
Experimental: (§2) In order to measure the inhibitory activity (%) against protein kinases of the compounds of the present invention, biochemical assays were performed on a full kinase panel composed of 369 kinases.

PCTAIRE2 = PCTAIRE2 (Homo sapiens, UniProt Q00537); assay: Kinase panel biochemical assay; conditions: single concentration of 1 μM; panel of 369 kinases; read-out: kinase activity inhibited (%), PCTAIRE2
PCTAIRE2, sequence (Q00537 whole entry): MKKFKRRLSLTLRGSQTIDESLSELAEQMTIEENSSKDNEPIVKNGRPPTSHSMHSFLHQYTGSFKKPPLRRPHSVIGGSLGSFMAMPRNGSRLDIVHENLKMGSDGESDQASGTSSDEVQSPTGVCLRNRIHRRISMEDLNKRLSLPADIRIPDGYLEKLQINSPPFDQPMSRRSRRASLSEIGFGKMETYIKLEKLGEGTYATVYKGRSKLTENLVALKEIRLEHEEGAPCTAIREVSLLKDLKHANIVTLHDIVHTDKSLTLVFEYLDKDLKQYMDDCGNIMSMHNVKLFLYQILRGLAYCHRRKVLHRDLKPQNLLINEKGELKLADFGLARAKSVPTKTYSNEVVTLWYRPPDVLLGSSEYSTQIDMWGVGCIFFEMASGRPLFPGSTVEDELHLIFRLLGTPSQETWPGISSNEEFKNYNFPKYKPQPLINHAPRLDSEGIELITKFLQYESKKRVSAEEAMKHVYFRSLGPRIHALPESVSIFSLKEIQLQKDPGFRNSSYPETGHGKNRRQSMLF
PCTAIRE2, sequence (Q8ND76 whole entry partner): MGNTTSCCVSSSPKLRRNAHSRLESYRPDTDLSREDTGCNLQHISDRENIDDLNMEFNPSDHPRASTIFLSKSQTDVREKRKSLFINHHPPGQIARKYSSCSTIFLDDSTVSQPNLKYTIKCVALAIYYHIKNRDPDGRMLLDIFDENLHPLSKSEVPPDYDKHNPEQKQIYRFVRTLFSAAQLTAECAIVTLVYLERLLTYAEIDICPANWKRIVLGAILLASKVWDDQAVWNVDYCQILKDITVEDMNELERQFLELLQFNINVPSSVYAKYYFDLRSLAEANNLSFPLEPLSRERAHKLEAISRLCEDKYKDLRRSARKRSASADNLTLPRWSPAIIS
Experimental: as §2

LYN = LYN (Homo sapiens, UniProt P07948); assay: Kinase panel biochemical assay; conditions: single concentration of 1 μM; panel of 369 kinases; read-out: kinase activity inhibited (%), LYN
Experimental: as §2

PCTAIRE1 = PCTAIRE1 (Homo sapiens, UniProt Q00536); assay: Kinase panel biochemical assay; conditions: single concentration of 1 μM; panel of 369 kinases; read-out: kinase activity inhibited (%), PCTAIRE1
PCTAIRE1, sequence (Q00536 whole entry): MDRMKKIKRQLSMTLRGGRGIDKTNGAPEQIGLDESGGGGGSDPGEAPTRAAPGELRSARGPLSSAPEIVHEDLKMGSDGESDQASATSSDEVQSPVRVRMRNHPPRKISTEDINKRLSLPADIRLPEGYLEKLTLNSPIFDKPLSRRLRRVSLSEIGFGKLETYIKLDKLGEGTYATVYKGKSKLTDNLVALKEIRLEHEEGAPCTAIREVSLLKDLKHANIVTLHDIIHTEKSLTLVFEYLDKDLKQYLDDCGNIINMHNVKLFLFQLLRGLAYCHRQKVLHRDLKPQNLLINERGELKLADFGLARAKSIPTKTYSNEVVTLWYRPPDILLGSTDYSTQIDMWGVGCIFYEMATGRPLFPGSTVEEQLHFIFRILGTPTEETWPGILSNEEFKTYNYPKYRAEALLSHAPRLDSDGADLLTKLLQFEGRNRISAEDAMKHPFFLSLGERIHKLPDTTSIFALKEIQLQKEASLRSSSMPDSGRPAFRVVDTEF
PCTAIRE1, sequence (Q8ND76 whole entry partner): as the sequence (Q8ND76 whole entry partner) above
Experimental: as §2

LCK = LCK (Homo sapiens, UniProt P06239); assay: Kinase panel biochemical assay; conditions: single concentration of 1 μM; panel of 369 kinases; read-out: kinase activity inhibited (%), LCK
Experimental: as §2

ROS = ROS (Homo sapiens, UniProt P08922); assay: Kinase panel biochemical assay; conditions: single concentration of 1 μM; panel of 369 kinases; read-out: kinase activity inhibited (%), ROS
ROS, sequence (P08922 28-2347): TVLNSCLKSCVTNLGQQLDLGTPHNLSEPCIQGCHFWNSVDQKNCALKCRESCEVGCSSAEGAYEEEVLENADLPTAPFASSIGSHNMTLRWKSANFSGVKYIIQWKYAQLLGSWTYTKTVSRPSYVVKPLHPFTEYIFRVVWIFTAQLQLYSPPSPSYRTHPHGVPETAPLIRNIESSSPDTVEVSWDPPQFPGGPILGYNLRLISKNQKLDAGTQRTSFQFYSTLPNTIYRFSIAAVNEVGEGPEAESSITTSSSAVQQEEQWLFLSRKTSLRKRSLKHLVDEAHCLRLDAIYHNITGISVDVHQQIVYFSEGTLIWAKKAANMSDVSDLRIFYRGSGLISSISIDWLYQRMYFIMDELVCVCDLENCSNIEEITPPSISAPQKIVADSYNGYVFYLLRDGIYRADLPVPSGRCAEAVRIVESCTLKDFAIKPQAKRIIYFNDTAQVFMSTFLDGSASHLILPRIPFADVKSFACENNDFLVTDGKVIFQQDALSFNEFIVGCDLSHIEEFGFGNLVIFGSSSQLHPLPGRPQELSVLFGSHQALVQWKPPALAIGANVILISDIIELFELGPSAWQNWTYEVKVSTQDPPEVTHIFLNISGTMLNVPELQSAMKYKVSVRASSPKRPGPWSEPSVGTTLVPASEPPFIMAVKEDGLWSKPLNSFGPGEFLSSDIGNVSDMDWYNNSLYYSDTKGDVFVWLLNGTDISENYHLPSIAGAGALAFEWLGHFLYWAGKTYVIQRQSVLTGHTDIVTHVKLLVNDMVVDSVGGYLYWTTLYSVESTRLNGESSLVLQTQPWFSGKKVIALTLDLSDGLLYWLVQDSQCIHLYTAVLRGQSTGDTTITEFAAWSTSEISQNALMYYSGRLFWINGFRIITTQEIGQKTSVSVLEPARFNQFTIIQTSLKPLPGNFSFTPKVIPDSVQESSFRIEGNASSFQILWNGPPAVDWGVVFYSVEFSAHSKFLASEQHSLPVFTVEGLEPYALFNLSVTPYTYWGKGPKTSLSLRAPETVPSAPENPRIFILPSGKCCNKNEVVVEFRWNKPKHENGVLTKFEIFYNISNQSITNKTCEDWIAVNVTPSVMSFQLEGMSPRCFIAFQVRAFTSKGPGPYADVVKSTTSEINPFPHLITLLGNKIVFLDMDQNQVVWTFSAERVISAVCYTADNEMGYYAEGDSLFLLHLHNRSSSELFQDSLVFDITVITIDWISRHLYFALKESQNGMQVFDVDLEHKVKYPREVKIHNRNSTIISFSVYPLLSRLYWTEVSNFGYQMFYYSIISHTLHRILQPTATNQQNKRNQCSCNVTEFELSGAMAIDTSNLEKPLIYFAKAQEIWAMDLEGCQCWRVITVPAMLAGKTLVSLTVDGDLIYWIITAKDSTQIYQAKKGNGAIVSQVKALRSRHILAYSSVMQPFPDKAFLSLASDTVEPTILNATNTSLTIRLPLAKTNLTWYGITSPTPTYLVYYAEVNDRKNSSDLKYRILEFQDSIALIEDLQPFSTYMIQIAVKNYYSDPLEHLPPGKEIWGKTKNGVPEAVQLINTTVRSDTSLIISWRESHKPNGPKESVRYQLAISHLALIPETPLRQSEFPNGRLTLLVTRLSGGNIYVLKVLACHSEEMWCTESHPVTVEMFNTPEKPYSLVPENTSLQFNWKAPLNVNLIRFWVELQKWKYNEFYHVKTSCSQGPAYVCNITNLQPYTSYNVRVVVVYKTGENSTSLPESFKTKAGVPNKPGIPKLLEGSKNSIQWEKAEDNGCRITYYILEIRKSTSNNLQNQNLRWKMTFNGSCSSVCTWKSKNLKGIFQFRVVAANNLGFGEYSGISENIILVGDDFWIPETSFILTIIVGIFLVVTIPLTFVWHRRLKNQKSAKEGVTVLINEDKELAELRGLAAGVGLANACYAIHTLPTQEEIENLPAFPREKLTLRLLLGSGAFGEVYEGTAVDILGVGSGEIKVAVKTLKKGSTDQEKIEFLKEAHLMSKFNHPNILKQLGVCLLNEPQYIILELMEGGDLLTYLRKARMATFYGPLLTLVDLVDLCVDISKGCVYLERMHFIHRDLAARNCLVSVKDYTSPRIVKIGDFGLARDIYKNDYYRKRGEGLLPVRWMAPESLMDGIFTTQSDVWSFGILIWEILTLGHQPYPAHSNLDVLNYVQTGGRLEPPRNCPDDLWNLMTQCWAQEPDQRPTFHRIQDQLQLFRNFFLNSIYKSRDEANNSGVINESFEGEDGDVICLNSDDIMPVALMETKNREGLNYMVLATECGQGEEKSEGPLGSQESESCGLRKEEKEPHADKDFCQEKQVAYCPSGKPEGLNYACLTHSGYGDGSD
Experimental: as §2

CLK2 = CLK2 (Homo sapiens, UniProt P49760); assay: Kinase panel biochemical assay; conditions: single concentration of 1 μM; panel of 369 kinases; read-out: kinase activity inhibited (%), CLK2
Experimental: as §2

DDR1 = DDR1 (Homo sapiens, UniProt Q08345); assay: Kinase panel biochemical assay; conditions: single concentration of 1 μM; panel of 369 kinases; read-out: kinase activity inhibited (%), DDR1
DDR1, sequence (Q08345 19-913): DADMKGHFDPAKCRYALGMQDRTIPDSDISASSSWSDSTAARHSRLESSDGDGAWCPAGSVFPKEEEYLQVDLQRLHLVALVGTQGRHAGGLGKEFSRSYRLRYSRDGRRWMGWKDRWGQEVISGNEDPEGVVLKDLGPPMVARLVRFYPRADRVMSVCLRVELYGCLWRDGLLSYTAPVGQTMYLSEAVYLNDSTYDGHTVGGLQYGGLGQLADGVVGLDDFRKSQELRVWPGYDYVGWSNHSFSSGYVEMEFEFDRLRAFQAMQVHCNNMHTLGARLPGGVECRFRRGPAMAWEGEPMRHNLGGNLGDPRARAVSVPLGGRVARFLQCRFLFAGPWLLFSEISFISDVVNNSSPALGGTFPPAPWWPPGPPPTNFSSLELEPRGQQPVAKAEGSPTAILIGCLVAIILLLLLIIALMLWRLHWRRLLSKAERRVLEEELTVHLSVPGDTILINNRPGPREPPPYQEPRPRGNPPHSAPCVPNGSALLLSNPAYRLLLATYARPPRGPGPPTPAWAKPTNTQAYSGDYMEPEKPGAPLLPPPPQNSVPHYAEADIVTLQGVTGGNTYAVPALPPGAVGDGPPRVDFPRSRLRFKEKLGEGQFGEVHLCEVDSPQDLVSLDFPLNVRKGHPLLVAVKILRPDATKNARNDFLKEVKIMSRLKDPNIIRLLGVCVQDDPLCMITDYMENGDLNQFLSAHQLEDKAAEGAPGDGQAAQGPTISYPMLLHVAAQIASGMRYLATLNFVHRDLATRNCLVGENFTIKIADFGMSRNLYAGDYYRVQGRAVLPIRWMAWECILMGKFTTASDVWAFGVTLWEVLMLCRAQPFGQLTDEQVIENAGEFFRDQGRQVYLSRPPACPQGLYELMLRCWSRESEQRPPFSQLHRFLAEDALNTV
Experimental: as §2

FGFR2 = FGFR2 (Homo sapiens, UniProt P21802); assay: Kinase panel biochemical assay; conditions: single concentration of 1 μM; panel of 369 kinases; read-out: kinase activity inhibited (%), FGFR2
Experimental: as §2

MAK = MAK (Homo sapiens, UniProt P20794); assay: Kinase panel biochemical assay; conditions: single concentration of 1 μM; panel of 369 kinases; read-out: kinase activity inhibited (%), MAK
Experimental: as §2

FGFR3 = FGFR3 (Homo sapiens, UniProt P22607); assay: Kinase panel biochemical assay; conditions: single concentration of 1 μM; panel of 369 kinases; read-out: kinase activity inhibited (%), FGFR3
Experimental: as §2

MPSK1 = MPSK1 (Homo sapiens, UniProt O75716); assay: Kinase panel biochemical assay; conditions: single concentration of 1 μM; panel of 369 kinases; read-out: kinase activity inhibited (%), MPSK1
Experimental: as §2

PHKg1 = PHKg1 (Homo sapiens, UniProt Q16816); assay: Kinase panel biochemical assay; conditions: single concentration of 1 μM; panel of 369 kinases; read-out: kinase activity inhibited (%), PHKg1
PHKg1, sequence (Q16816 whole entry): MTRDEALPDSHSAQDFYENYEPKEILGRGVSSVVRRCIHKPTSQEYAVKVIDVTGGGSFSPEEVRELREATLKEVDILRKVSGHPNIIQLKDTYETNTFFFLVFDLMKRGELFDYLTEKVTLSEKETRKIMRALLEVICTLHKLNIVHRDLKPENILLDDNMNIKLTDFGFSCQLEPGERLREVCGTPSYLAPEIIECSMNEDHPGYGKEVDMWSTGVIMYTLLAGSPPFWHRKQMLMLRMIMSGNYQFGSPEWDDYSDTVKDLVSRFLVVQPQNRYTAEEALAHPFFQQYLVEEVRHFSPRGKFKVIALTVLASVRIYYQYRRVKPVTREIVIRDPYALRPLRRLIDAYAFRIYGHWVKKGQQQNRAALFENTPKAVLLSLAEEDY
Experimental: as §2

TAO2 = TAO2 (Homo sapiens, UniProt Q9UL54); assay: Kinase panel biochemical assay; conditions: single concentration of 1 μM; panel of 369 kinases; read-out: kinase activity inhibited (%), TAO2
Experimental: as §2

FMS = FMS (Homo sapiens, UniProt P07333); assay: Kinase panel biochemical assay; conditions: single concentration of 1 μM; panel of 369 kinases; read-out: kinase activity inhibited (%), FMS
Experimental: as §2

FGFR4 = FGFR4 (Homo sapiens, UniProt P22455); assay: Kinase panel biochemical assay; conditions: single concentration of 1 μM; panel of 369 kinases; read-out: kinase activity inhibited (%), FGFR4
Experimental: as §2

CDK4 = CDK4 (Homo sapiens, UniProt P11802); assay: Kinase panel biochemical assay; conditions: single concentration of 1 μM; panel of 369 kinases; read-out: kinase activity inhibited (%), CDK4
Experimental: as §2

Compound: CCN1CCN(c2ccc(Nc3ncnc(-c4cccnc4Nc4c(Cl)c(OC)cc(OC)c4Cl)n3)cc2)CC1 [Example 1]
- rate (%) of inhibition, CYP2C19 (CYP2C19): 26.7%
- rate (%) of inhibition, CYP2C9 (CYP2C9): 70.2%
- rate (%) of inhibition, CYP3A4 (CYP3A4): 17.0%
- rate (%) of inhibition, CYP2D6 (CYP2D6): 80.9%
- rate (%) of inhibition, CYP1A2 (CYP1A2): 71.4%
- inhibition at 1 µM (IRAK1): ≥ 90%
- inhibition at 1 µM (PCTAIRE2): ≥ 90%
- inhibition at 1 µM (LYN): ≥ 90%
- inhibition at 1 µM (PCTAIRE1): ≥ 90%
- inhibition at 1 µM (LCK): ≥ 90%
- inhibition at 1 µM (ROS): ≥ 90%
- inhibition at 1 µM (CLK2): ≥ 90%
- inhibition at 1 µM (DDR1): ≥ 90%
- inhibition at 1 µM (FGFR2): ≥ 90%
- inhibition at 1 µM (MAK): ≥ 90%
- inhibition at 1 µM (FGFR3): ≥ 90%
- inhibition at 1 µM (MPSK1): ≥ 90%
- inhibition at 1 µM (PHKg1): ≥ 90%
- inhibition at 1 µM (TAO2): ≥ 90%
- inhibition at 1 µM (FMS): ≥ 90%
- inhibition at 1 µM (FGFR4): ≥ 90%
- inhibition at 1 µM (CDK4): ≥ 90%
